Experimental data taken from article PMC9848300, “Discovery of novel enasidenib analogues targeting inhibition of mutant isocitrate dehydrogenase 2 as antileukaemic agents” (Journal of Enzyme Inhibition and Medicinal Chemistry, 2023).
Like-named read-outs stand apart in the source and are kept apart here.

Tests used:
[1] = tested on: HT29; experiment: NCI 60 antitumor screening (single dose / five doses); type: cell-based, human; settings: Homo sapiens
[2] = tested on: SNB-75; experiment: as above; type: cell-based; settings: Homo sapiens
[3] = tested on: ACHN; experiment: as above; type: cell-based; settings: Homo sapiens; for inhibition at 10 µM: read-out: Growth inhibition percentage (GI %)
[4] = tested on: K-562; experiment: as above; type: cell-based; settings: Homo sapiens
[5] = tested on: MALME-3M; experiment: as above; type: cell-based; settings: Homo sapiens; for inhibition at 10 µM: read-out: Growth inhibition percentage (GI %)
[6] = tested on: UACC-257; experiment: as above; type: cell-based; settings: Homo sapiens
[7] = biological target: T1, IDH2^R140Q (Homo sapiens, UniProt P48735, R140Q); experiment: biochemical
T1 sequence (P48735 40-452 R140Q): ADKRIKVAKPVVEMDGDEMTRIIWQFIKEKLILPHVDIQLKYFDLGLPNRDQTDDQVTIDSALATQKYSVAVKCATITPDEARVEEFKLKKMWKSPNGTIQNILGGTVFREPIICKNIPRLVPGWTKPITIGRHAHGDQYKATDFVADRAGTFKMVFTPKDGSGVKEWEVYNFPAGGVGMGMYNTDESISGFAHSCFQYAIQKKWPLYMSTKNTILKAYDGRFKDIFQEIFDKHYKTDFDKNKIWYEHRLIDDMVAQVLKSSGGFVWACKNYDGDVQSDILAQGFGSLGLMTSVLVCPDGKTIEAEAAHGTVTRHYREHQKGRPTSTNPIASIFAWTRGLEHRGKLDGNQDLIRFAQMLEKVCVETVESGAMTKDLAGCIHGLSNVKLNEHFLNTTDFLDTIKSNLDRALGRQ

[8] = HT-29, HT29 (colon cancer), single dose 10 μM, read-out: Growth inhibition percentage (GI %)
[9] = SNB-75 (CNS cancer), single dose 10 μM, read-out: Growth inhibition percentage (GI %)
[10] = ACHN (renal cancer), single dose 10 μM
[11] = K562, K-562 (leukaemia), single dose 10 μM, read-out: Growth inhibition percentage (GI %)
[12] = MALME-3M (melanoma), single dose 10 μM
[13] = UACC-257 (melanoma), single dose 10 μM, read-out: Growth inhibition percentage (GI %)
[14] = HT-29, read-out: Growth inhibition percentage (GI %)
[15] = SNB-75, read-out: Growth inhibition percentage (GI %)
[16] = K562, read-out: Growth inhibition percentage (GI %)
[17] = UACC-257, read-out: Growth inhibition percentage (GI %)

| Compound | inhibition at 10 µM [1, 8] | inhibition at 10 µM [2, 9] | inhibition at 10 µM [3, 10] | inhibition at 10 µM [4, 11] | inhibition at 10 µM [5, 12] | inhibition at 10 µM [6, 13] | also measured |
| --- | --- | --- | --- | --- | --- | --- | --- |
| O=C(NNc1nc(NNC(=O)c2ccccc2)nc(N2CCOCC2)n1)c1ccccc1 [compound 8d, N'-[4-(morpholin-4-yl)-6-(phenylhydrazido)-1,3,5-triazin-2-yl]benzohydrazide] | -12% | 9.11% | -4.4% | -6.16% | -7.11% | 1.13% |  |
| O=[N+]([O-])c1cccc(/C=N/Nc2nc(N/N=C/c3cccc([N+](=O)[O-])c3)nc(N3CCCCC3)n2)c1 [compound 7f, 2,4-Bis[(E)-2-[(3-Nitrophenyl)methylidene]hydrazin-1-yl]-6-(piperidin-1-yl)-1,3,5-triazine] |  |  |  |  |  |  | inhibition at 10 µM [1, 14]: 36.3%; inhibition at 10 µM [2, 15]: -0.71%; inhibition at 10 µM ([3]; ACHN): 37.8%; inhibition at 10 µM [4, 16]: 67.6%; inhibition at 10 µM ([5]; Malme-3M): 7.94%; inhibition at 10 µM [6, 17]: 4.25% |
| Oc1ccccc1/C=N/Nc1nc(N/N=C/c2ccccc2O)nc(N2CCOCC2)n1 [compound 6a, 2-[(1e)-(2-{4-[(E)-2-[(2-Hydroxyphenyl)methylidene]hydrazin-1-yl]-6-(morpholin-4-yl)-1,3,5-triazin-2-yl}hydrazin-1-ylidene)methyl]phenol] | 65.8% | 104% | 71.9% | 74.6% | 47.4% | 46.7% | GI50 ([1]; HT-29, HT29, five doses (0.01–100 μM), read-out: GI50): 5890 nM; GI50 ([2]; SNB-75, five doses (0.01–100 μM), read-out: GI50): 1820 nM; IC50 [7]: 373 ± 18.2 nM; GI50 ([3]; ACHN, five doses (0.01–100 μM), read-out: GI50): 1580 nM; GI50 ([4]; K562, K-562, five doses (0.01–100 μM), read-out: GI50): 680 nM; GI50 ([5]; MALME-3M, five doses (0.01–100 μM), read-out: GI50): 8690 nM; GI50 ([6]; UACC-257, five doses (0.01–100 μM), read-out: GI50): 6530 nM |
| C(=N\Nc1nc(N/N=C/c2ccc3c(c2)OCO3)nc(N2CCCCC2)n1)/c1ccc2c(c1)OCO2 [compound 7k, 2,4-Bis[(E)-2-(2H-1,3-Benzodioxol-5-ylmethylidene)hydrazin-1-yl]-6-(piperidin-1-yl)-1,3,5-triazine] | 61.8% | -13.1% | 5.09% | 58.9% | -20.2% | -7.99% |  |
| Oc1ccc(/C=N/Nc2nc(N/N=C/c3ccc(O)c(O)c3)nc(N3CCCCC3)n2)cc1O [compound 7j, 4-[(1e)-(2-{4-[(E)-2-[(3,4-Dihydroxyphenyl)methylidene]hydrazin-1-yl]-6-(piperidin-1-yl)-1,3,5-triazin-2-yl}hydrazin-1-ylidene)methyl]benzene-1,2-diol] | -13.4% | -4% | 6.6% | 6.41% | 6.88% | -8.89% |  |
| Brc1ccccc1/C=N/Nc1nc(N/N=C/c2ccccc2Br)nc(N2CCCCC2)n1 [compound 7b, 2,4-Bis[(E)-2-[(2-Bromophenyl)methylidene]hydrazin-1-yl]-6-(piperidin-1-yl)-1,3,5-triazine] | -1.89% | -2.35% | 4.56% | 4.67% | -6.25% | -8.22% |  |
| O=[N+]([O-])c1cccc(/C=N/Nc2nc(N/N=C/c3cccc([N+](=O)[O-])c3)nc(N3CCOCC3)n2)c1 [compound 6f, 2-(Morpholin-4-yl)-4,6-bis[(E)-2-[(3-nitrophenyl)methylidene]hydrazin-1-yl]-1,3,5-triazine] |  |  |  |  |  |  | inhibition at 10 µM [1, 14]: 42.2%; inhibition at 10 µM [2, 15]: 11.2%; inhibition at 10 µM ([3]; ACHN): 30.2%; inhibition at 10 µM [4, 16]: 63.3%; inhibition at 10 µM ([5]; Malme-3M): 6.12%; inhibition at 10 µM [6, 17]: 9.17% |
| O=C1Nc2ccc(Cl)cc2/C1=N\Nc1nc(N/N=C2/C(=O)Nc3ccc(Cl)cc32)nc(N2CCOCC2)n1 [compound 8b, (3E)-5-Chloro-3-[2–(4-{2-[(3E)-5-chloro-2-oxo-2,3-dihydro-1H-indol-3-ylidene]hydrazin-1-yl}6-(morpholin-4-yl)-1,3,5-triazin-2-yl)hydrazin-1-ylidene]-2,3-dihydro-1H-indol-2-one] | 8.9% | 101% | 25.5% | 67.1% | 43.6% | 18% |  |
| Clc1cccc(/C=N/Nc2nc(N/N=C/c3cccc(Cl)c3Cl)nc(N3CCCCC3)n2)c1Cl [compound 7h, 2,4-Bis[(E)-2-[(2,3-Dichlorophenyl)methylidene]hydrazin-1-yl]-6-(piperidin-1-yl)-1,3,5-triazine] | 15.7% | -4.05% | 16.3% | 21.9% | 7.49% | 10.2% |  |
| Brc1ccccc1/C=N/Nc1nc(N/N=C/c2ccccc2Br)nc(N2CCOCC2)n1 [compound 6b, 2,4-Bis[(E)-2-[(2-bromophenyl)methylidene]hydrazin-1-yl]-6-(morpholin-4-yl)-1,3,5-triazine] | 26% | -31.7% | 6.36% | 5.94% | -42.9% | -3.93% |  |
| C(=N\Nc1nc(N/N=C/c2ccc3c(c2)OCO3)nc(N2CCOCC2)n1)/c1ccc2c(c1)OCO2 [compound 6k, 2,4-Bis[(E)-2-(2H-1,3-Benzodioxol-5-ylmethylidene)hydrazin-1-yl]-6-(morpholin-4-yl)-1,3,5-triazine] | 51.7% | 13.4% | 24.7% | 45.6% | -3.77% | -2.23% |  |
| COC(=O)C(Cc1ccccc1)Nc1nc(NC(Cc2ccccc2)C(=O)OC)nc(N2CCOCC2)n1 (stereo not shown) [compound 8c, Methyl 2-({4-[(1-methoxy-1-oxo-3-phenylpropan-2-yl)amino]-6-(morpholin-4-yl)-1,3,5-triazin-2-yl}amino)-3-phenylpropanoate] | -0.61% | 9.51% | -8.95% | 8.42% | -4.87% | -3.35% |  |
| O=[N+]([O-])c1cc(/C=N/Nc2nc(N/N=C/c3ccc(Cl)c([N+](=O)[O-])c3)nc(N3CCCCC3)n2)ccc1Cl [compound 7i, 2,4-Bis[(E)-2-[(4-Chloro-3-nitrophenyl)methylidene]hydrazin-1-yl]-6-(piperidin-1-yl)-1,3,5-triazine] |  |  |  |  |  |  | inhibition at 10 µM [1, 14]: 92.6%; inhibition at 10 µM [2, 15]: -36.1%; inhibition at 10 µM ([3]; ACHN): 64.8%; inhibition at 10 µM [4, 16]: 68.3%; inhibition at 10 µM ([5]; Malme-3M): -1.47%; inhibition at 10 µM [6, 17]: 56.9% |
| Oc1ccc(/C=N/Nc2nc(N/N=C/c3ccc(O)c(O)c3)nc(N3CCOCC3)n2)cc1O [compound 6j, 4-[(1e)-(2-{4-[(E)-2-[(3,4-Dihydroxyphenyl)methylidene]hydrazin-1-yl]-6-(morpholin-4-yl)-1,3,5-triazin-2-yl}hydrazin-1-ylidene)methyl]benzene-1,2-diol] | -12% | -1.54% | -1.32% | -5.6% | -4.04% | -3.12% |  |
| O=[N+]([O-])c1cc(/C=N/Nc2nc(N/N=C/c3ccc(Cl)c([N+](=O)[O-])c3)nc(N3CCOCC3)n2)ccc1Cl [compound 6i, 2,4-Bis[(E)-2-[(4-Chloro-3-nitrophenyl)methylidene]hydrazin-1-yl]-6-(morpholin-4-yl)-1,3,5-triazine] |  |  |  |  |  |  | inhibition at 10 µM [1, 14]: -2.29%; inhibition at 10 µM [2, 15]: -7.64%; inhibition at 10 µM ([3]; ACHN): -2.76%; inhibition at 10 µM [4, 16]: 31.4%; inhibition at 10 µM ([5]; Malme-3M): -29.9%; inhibition at 10 µM [6, 17]: -2.78% |
| Clc1cccc(/C=N/Nc2nc(N/N=C/c3cccc(Cl)c3Cl)nc(N3CCOCC3)n2)c1Cl [compound 6h, 2,4-Bis[(E)-2-[(2,3-Dichlorophenyl)methylidene]hydrazin-1-yl]-6-(morpholin-4-yl)-1,3,5-triazine] | 12.9% | -19.6% | -7.98% | 38.6% | 2.72% | -9.57% |  |
| C/C(=N\Nc1nc(N/N=C(\C)c2ccc([N+](=O)[O-])cc2)nc(N2CCOCC2)n1)c1ccc([N+](=O)[O-])cc1 [compound 8a, 2-(Morpholin-4-yl)-4,6-bis[(E)-2-[1–(4-nitrophenyl)ethylidene]hydrazin-1-yl]-1,3,5-triazine] |  |  |  |  |  |  | inhibition at 10 µM [1, 14]: 19.4%; inhibition at 10 µM [2, 15]: 19.4%; inhibition at 10 µM ([3]; ACHN): 22.1%; inhibition at 10 µM [4, 16]: 20.3%; inhibition at 10 µM ([5]; Malme-3M): 30.6%; inhibition at 10 µM [6, 17]: 0.81% |
